Source: US9669028B2, “Substituted 5-(pyrazin-2-yl)-1H-pyrazolo [3, 4-B] pyridine and pyrazolo [3, 4-B] pyridine derivatives as protein kinase inhibitors” (Arrien Pharmaceuticals LLC, priority 2011, dated 2017)

Experiments:
LRRK2 = LRRK2 (Homo sapiens (Human), UniProt Q5S007); test: LRRK2 Kinase Assay; type: biochemical; conditions: 10 μM ATP
Procedure: (§1) Briefly, specific kinase/substrate pairs along with required cofactors were prepared in reaction buffer; 20 mM Hepes (pH 7.5), 10 mM MgCl2, 1 mM EGTA, 0.02% Brij35, 0.02 mg/ml BSA, 0.1 mM Na3VO4, 2 mM DTT, 1% DMSO. Compounds were delivered into the reaction, followed ˜20 min later by addition of a mixture of ATP (Sigma) and 33P ATP (PerkinElmer) to a final concentration of 10 μM. […] IC50 values and curve fits were obtained using Prism (GraphPad Software). Kinome tree representations were prepared using Kinome Mapper (http://www.reactionbiology.com/apps/kinome/mapper/Launch Kinome.htm).
For the wild type LRRK the 2×LRRK2/ERM (LRRKtide) mixture was prepared in 50 mM Tris pH 8.5, 0.01% BRIJ-35, 10 mM MgCl2, 1 mM EGTA, 0.02% NaN3. […] After 1 hour Kinase Reaction incubation, 5 μL of Detection Mix was added.

LRRK2 G2019S = LRRK2 G2019S (Homo sapiens (Human), UniProt Q5S007, G2019S); test: LRRK2 G2019S Kinase Assay; type: biochemical; conditions: 10 μM ATP
Procedure: Procedure: Enzyme was incubated with substrate peptide in reaction buffer in the presence and absence of test compounds or Staurosporine. All additions were done on ice, followed by the addition of ATP mix. Wells were uniformly mixed using an Eppendorff plate shaker and incubated at 30° C. for 20 min, and stopped by the addition of 5 μl of 3% phosphoric acid. Volume was increased to 100 μl by adding 0.8% phosphoric acid which was then transferred to PC filter mats (Millipore), pre-equilibrated with 70% ethanol and water. Plates were washed thrice with 100 μl 0.8% phosphoric acid and dried for an hour at 60° C. 100 μl scintillation fluid was added into each well and reading taken in Perkin Elmer TOPCOUNT beta counter. […] A validation EC50 curve was generated by plotting CPM for each Staurosporine concentration on y-axis against the Log concentration of Staurosporine (nM) on the x-axis followed by a best fit curve through the points.
After 1 hour Kinase Reaction incubation, 5 μL of Detection Mix was added.

DYRK1A = DYRK1A (Homo sapiens (Human), UniProt Q13627); test: In vitro DYRK1A inhibition assay; type: biochemical
Procedure: as §1
The 2×DYRK1A/Ser/Thr 18 mixture was prepared in 50 mM HEPES pH 7.5, 0.01% BRIJ-35, 10 mM MgCl2, 1 mM EGTA.

[1] = system: 299 protein kinases+17 additional preview kinases; test: Protein Kinase Selectivity Profiler; type: biochemical, human; conditions: 10 μM ATP
Procedure: In vitro profiling of the 317 member kinase panel was performed at Reaction Biology Corporation using the “HotSpot” assay platform. Briefly, specific kinase/substrate pairs along with required cofactors were prepared in reaction buffer; 20 mM Hepes (pH 7.5), 10 mM MgCl2, 1 mM EGTA, 0.02% Brij35, 0.02 mg/ml BSA, 0.1 mM Na3VO4, 2 mM DTT, 1% DMSO. Compounds were delivered into the reaction, followed ˜20 min later by addition of a mixture of ATP (Sigma) and 33P ATP (PerkinElmer) to a final concentration of 10 μM. Reactions were carried out at 25° C. for 120 min, followed by spotting of the reactions onto P81 ion exchange filter paper (Whatman). Unbound phosphate was removed by extensive washing of filters in 0.75% phosphoric acid. […] IC50 values and curve fits were obtained using Prism (GraphPad Software). Kinome tree representations were prepared using Kinome Mapper (http://www.reactionbiology.com/apps/kinome/mapper/Launch Kinome.htm). Specifically for the LRRK2 enzyme the substrate LRRKtide (gene bank and protein access numbers NP_940980.2 Q5S007) and clone aa 970-2527 expressed in baculovirus in insect cells with N-terminal GST tag was employed in the study protocol. In the case of DYRK1A (SEQ ID NO 16) the substrate casein (gene bank and protein access numbers NP_001387 Q13627) full length clone expressed in insect with n-terminal tag was used.
A control compound was tested in 10-dose IC50 mode with 3-fold serial dilution starting at 20 μM. Reactions were carried out at 10 μM ATP. Data pages include raw data, % Enzyme activity (relative to DMSO controls), and curve fits.

[2] = system: MPTP-injected C57 black mice; test: MPTP mouse model of Parkinson's disease, oral pre-treatment; type: in vivo; conditions: for protection against MPTP-induced TH cell loss and dopaminergic degeneration in substantia nigra and striatum: 10 mg/kg and 30 mg/kg oral; for locomotor activities in MPTP-injected mice / striatal dopamine levels in MPTP treated mice: orally administered, pre-treatment
[3] = system: MPTP-injected C57 black mice; test: MPTP mouse model, intravenous pre-treatment; type: in vivo; conditions: 5 mg/kg i.v.
Procedure: 24 C57 black mice (C57/bl6, 6-8 week old, and 25-30 g) were purchased from Charles River Laboratories, Ohio. […] Prior to treatment animals were pre-trained on rotarod for at least 3 minutes every day for three successive days. Test compound (5 mg/kg) was administered intravenously to group C animals, 24 h prior to MPTP-injection and continued daily for additional 11 days. MPTP was dissolved in PBS and injected intraperitoneally (i.p.) at doses of 25 mg/kg, once daily for 5 days to group B and C animals. Group A animals were injected with saline (i.p.) to be used as controls. Urine and Faeces were collected on Day 8, behavioural studies were performed on Day 9 (4-days post-MPTP). On day 12 (7 days post-MPTP), 4 animals/group were sacrificed, different brains regions including striatum and substantia nigra were dissected. Left striatum were used for neurochemical analysis. Other 4 animals/group were perfused and used for TH immunohistological studies.

in vivo = conditions: male, Sprague Dawley, rat
Description: To investigate the pharmacokinetic profiles of test compound following intravenous bolus administration and oral gavage in male Sprague Dawley rats.

LRRK2, sequence (Q5S007 970-2527): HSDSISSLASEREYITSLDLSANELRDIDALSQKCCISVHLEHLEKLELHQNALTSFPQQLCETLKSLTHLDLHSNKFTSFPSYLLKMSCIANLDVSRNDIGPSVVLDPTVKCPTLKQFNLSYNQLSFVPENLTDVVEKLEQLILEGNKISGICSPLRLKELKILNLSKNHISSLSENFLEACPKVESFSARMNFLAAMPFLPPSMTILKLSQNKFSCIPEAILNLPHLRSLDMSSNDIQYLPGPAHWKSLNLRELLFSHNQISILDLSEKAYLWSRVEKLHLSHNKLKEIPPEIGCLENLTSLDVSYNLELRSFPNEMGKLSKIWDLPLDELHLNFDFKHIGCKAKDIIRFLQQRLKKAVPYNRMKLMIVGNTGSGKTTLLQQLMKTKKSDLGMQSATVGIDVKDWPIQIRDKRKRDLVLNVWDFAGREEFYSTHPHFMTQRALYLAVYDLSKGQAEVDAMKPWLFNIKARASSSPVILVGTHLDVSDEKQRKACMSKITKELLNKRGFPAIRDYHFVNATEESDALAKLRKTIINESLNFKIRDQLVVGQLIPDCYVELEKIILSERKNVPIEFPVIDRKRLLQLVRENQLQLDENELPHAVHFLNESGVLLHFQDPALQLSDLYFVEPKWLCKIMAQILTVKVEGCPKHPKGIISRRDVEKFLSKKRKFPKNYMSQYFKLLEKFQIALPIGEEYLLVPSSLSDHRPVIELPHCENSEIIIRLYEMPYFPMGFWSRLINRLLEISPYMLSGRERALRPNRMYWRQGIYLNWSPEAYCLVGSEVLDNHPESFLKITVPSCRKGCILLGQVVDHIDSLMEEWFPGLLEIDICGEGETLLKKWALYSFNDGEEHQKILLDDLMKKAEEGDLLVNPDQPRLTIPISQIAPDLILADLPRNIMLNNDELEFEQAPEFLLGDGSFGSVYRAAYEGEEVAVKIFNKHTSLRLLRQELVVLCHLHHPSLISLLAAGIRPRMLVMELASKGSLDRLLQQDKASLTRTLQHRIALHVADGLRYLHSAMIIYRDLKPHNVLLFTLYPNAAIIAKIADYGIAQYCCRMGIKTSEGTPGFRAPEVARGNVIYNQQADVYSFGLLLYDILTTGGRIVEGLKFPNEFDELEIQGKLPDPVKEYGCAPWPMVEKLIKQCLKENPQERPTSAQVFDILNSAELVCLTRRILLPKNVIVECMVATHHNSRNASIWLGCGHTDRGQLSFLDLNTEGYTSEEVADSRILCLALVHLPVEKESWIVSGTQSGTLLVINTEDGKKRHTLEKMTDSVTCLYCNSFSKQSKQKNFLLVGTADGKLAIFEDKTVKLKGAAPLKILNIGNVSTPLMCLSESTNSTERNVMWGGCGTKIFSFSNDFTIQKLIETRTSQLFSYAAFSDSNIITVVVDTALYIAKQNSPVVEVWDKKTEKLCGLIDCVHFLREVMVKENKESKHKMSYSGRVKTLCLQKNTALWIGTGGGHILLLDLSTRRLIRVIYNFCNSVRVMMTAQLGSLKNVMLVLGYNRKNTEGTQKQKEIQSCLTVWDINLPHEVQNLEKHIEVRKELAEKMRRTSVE
LRRK2 G2019S, sequence (Q5S007 970-2527 G2019S): as the sequence (Q5S007 970-2527) above, with G1050S counted along it

SMILES | IC50 (LRRK2) [nM] | IC50 (LRRK2 G2019S) [nM] | IC50 (DYRK1A) [nM] | further results
CN(CC1CCOCC1)c1cncc(-c2cnc3[nH]cc(Cl)c3c2)n1 [Compound 144, 6-(3-chloro-1H-pyrrolo[2,3-b]pyridin-5-yl)-N-methyl-N-((tetrahydro-2H-pyran-4-yl)methyl)pyrazin-2-amine] | < 500 | < 500 | < 500 | –
CN(CC1CCOCC1)c1cncc(-c2cnc3[nH]cc(F)c3c2)n1 [Compound 145, 6-(3-fluoro-1H-pyrrolo[2,3-b]pyridin-5-yl)-N-methyl-N-((tetrahydro-2H-pyran-4-yl)methyl)pyrazin-2-amine] | < 500 | < 500 | < 500 | –
Clc1c[nH]c2ncc(-c3cncc(N4CCOCC4)n3)cc12 [Compound 149, 4-(6-(3-chloro-1H-pyrrolo[2,3-b]pyridin-5-yl)pyrazin-2-yl)morpholine] | < 500 | < 500 | < 500 | –
Fc1c[nH]c2ncc(-c3cncc(N4CCOCC4)n3)cc12 [Compound 150, 4-(6-(3-fluoro-1H-pyrrolo[2,3-b]pyridin-5-yl)pyrazin-2-yl)morpholine] | < 500 | < 500 | < 500 | –
CN1CCN(Cc2cccc(-c3cnc4[nH]ccc4c3)c2)CC1 [Compound 152, 5-(3-((4-methylpiperazin-1-yl)methyl)phenyl)-1H-pyrrolo[2,3-b]pyridine] | < 500 | < 500 | < 500 | –
COc1ccccc1-c1n[nH]c2ncc(-c3ccsc3)cc12 [Compound 183, 3-(2-methoxyphenyl)-5-(thiophen-3-yl)-1H-pyrazolo[3,4-b]pyridine] | < 500 | < 500 | < 500 | –
COc1ccccc1-c1n[nH]c2ncc(-c3ccoc3)cc12 [Compound 184, 5-(furan-3-yl)-3-(2-methoxyphenyl)-1H-pyrazolo[3,4-b]pyridine] | < 500 | < 500 | < 500 | –

Second part, led by results:

IC50 (LRRK2) [nM] | IC50 (LRRK2 G2019S) [nM] | IC50 (DYRK1A) [nM] | SMILES | further results
< 500 | < 500 | < 500 | Cc1n[nH]c2ncc(-c3cncc(N(C)CC4CCOCC4)n3)cc12 [Compound 71, N-methyl-6-(3-methyl-1H-pyrazolo[3,4-b]pyridin-5-yl)-N-((tetrahydro-2H-pyran-4-yl)methyl)pyrazin-2-amine] | activity against kinases in broader scope, relative to DMSO control ([1]; ABL1 T315I, ALK2, ARK5, Aurora A/B/C, BRAF, C-KIT, CLK1-4, CSF1R, DYRK1A-4, FLT3, GSK3β, JAK1-3, KDR, LCK ... TRKA-C, single dose): 5-15%; protection against MPTP-induced TH cell loss and dopaminergic degeneration in substantia nigra and striatum [2]: dose-dependent protection; locomotor activities in MPTP-injected mice [2]: Improve Locomotor Activities; striatal dopamine levels in MPTP treated mice [2]: Restore Striatal Dopamine Levels; protection against MPTP-induced TH neuronal loss in the substantia nigra and in the striatum [3]: Protect Against MPTP-Induced TH Neuronal Loss; AUC(0-t) (in vivo; iv, 5 mg/kg): 1020 ng·h/mL; Vd (in vivo; iv, 5 mg/kg): 15.2 L/kg; clearance (in vivo; iv, 5 mg/kg): 123 mL/min/kg; half-life (in vivo; iv, 5 mg/kg): 2.26 h; AUC(0-t) (in vivo; po, 30 mg/kg): 1040 ng·h/mL; Cmax (in vivo; po, 30 mg/kg): 133 ng/mL; F (in vivo; po, 30 mg/kg): 24%; Tmax (in vivo; po, 30 mg/kg): 6.7 h
< 500 | < 500 | < 500 | c1ccc2c(c1)CCN2c1cncc(-c2cnc3[nH]ccc3c2)n1 [Compound 134, 5-(6-(indolin-1-yl)pyrazin-2-yl)-1H-pyrrolo[2,3-b]pyridine] | % enzyme inhibition relative to DMSO controls ([1]; LRRK2, LRRK2 G2019S, CHK1, DYRK1A, FLT3, MLK1, TNIK, TRKA, single dose 0.5 μM, 1 μM): 5-15%; protection against MPTP-induced TH cell loss and dopaminergic degeneration in substantia nigra and striatum [2]: dose-dependent protection; locomotor activities in MPTP-injected mice [2]: Improve Locomotor Activities; striatal dopamine levels in MPTP treated mice [2]: Restore Striatal Dopamine Levels; protection against MPTP-induced TH neuronal loss in the substantia nigra and in the striatum [3]: Protect Against MPTP-Induced TH Neuronal Loss; AUC(0-t) (in vivo; iv, 5 mg/kg): 1020 ng·h/mL; Vd (in vivo; iv, 5 mg/kg): 15.2 L/kg; clearance (in vivo; iv, 5 mg/kg): 123 mL/min/kg; half-life (in vivo; iv, 5 mg/kg): 2.26 h; AUC(0-t) (in vivo; po, 30 mg/kg): 1040 ng·h/mL; Cmax (in vivo; po, 30 mg/kg): 133 ng/mL; F (in vivo; po, 30 mg/kg): 24%; Tmax (in vivo; po, 30 mg/kg): 6.7 h
< 500 | < 500 | < 500 | OC1CCN(c2cncc(-c3cnc4[nH]ccc4c3)n2)CC1 [Compound 137, 1-(6-(1H-pyrrolo[2,3-b]pyridin-5-yl)pyrazin-2-yl)piperidin-4-ol] | –
< 500 | < 500 | < 500 | CN(CC1CCOCC1)c1cncc(-c2cnc3[nH]ccc3c2)n1 [Compound 143, N-methyl-6-(1H-pyrrolo[2,3-b]pyridin-5-yl)-N-((tetrahydro-2H-pyran-4-yl)methyl)pyrazin-2-amine] | –
